Laboratory results: paper PMC5218480 (PLoS ONE, 2017)

Test system: MV-4-11 cells
Experiment: Gene expression microarray analysis (Affymetrix PrimeView) and GSEA
Assay type: cell-based, human
Design: RFU PODN (11730768_x_at) / Fold change /veh PODN (11730768_x_at) / RFU LINC00158 (11744669_a_at) / Fold change /veh LINC00158 (11744669_a_at) / RFU DUSP10 (11751237_a_at) / Fold change /veh DUSP10 (11751237_a_at) / RFU ID3 (11757404_x_at) / Fold change /veh ID3 (11757404_x_at) / RFU PLEKHG5 (11737974_s_at) / Fold change /veh PLEKHG5 (11737974_s_at) / RFU LRRC4B (11730491_at) / Fold change /veh LRRC4B (11730491_at) / RFU GIMAP4 (11747438_a_at) / Fold change /veh GIMAP4 (11747438_a_at) / RFU KRT8 (11758183_x_at) / Fold change /veh KRT8 (11758183_x_at) / RFU CNN1 (11734310_a_at) / Fold change /veh CNN1 (11734310_a_at) / RFU VPS37D (11726825_at) / Fold change /veh VPS37D (11726825_at) / RFU C10orf10 (11716522_x_at) / Fold change /veh C10orf10 (11716522_x_at) / RFU KIR2DL2 /// KIR2DL4 /// KIR2DL5A /// KIR2DL5B /// KIR2DS1 /// KIR2DS2 /// KIR2DS3 /// KIR2DS4 /// KIR3DL3 /// KIR3DL3 /// KIR3DS1 (11738374_at) / Fold change /veh KIR2DL2 /// KIR2DL4 /// KIR2DL5A /// KIR2DL5B /// KIR2DS1 /// KIR2DS2 /// KIR2DS3 /// KIR2DS4 /// KIR3DL3 /// KIR3DL3 /// KIR3DS1 (11738374_at) / RFU C1QL1 (11718748_at) / Fold change /veh C1QL1 (11718748_at) / RFU TMPRSS4 (11747572_a_at) / Fold change /veh TMPRSS4 (11747572_a_at) / RFU HAMP (11756126_x_at) / Fold change /veh HAMP (11756126_x_at) / RFU RNFT2 (11725882_a_at) / Fold change /veh RNFT2 (11725882_a_at) / RFU NR4A2 (11747474_a_at) / Fold change /veh NR4A2 (11747474_a_at) / RFU ABCC12 (11746883_a_at) / Fold change /veh ABCC12 (11746883_a_at) / RFU TMEM136 (11760407_x_at) / Fold change /veh TMEM136 (11760407_x_at) / RFU CLDN22 /// WWC2 (11732394_at) / Fold change /veh CLDN22 /// WWC2 (11732394_at) / RFU HLA-DPB1 (11760878_x_at) / Fold change /veh HLA-DPB1 (11760878_x_at) / RFU SPINT1 (11716480_a_at) / Fold change /veh SPINT1 (11716480_a_at) / RFU GAP43 (11754022_s_at) / Fold change /veh GAP43 (11754022_s_at) / RFU A4GNT (11735810_at) / Fold change /veh A4GNT (11735810_at) / RFU PRB3 (11715151_x_at) / Fold change /veh PRB3 (11715151_x_at) / RFU TUBB4B (11761932_at) / Fold change /veh TUBB4B (11761932_at) / RFU CAPN14 (11732068_a_at) / Fold change /veh CAPN14 (11732068_a_at) / RFU TMCC2 (11721928_a_at) / Fold change /veh TMCC2 (11721928_a_at) / RFU IRGQ (11745062_a_at) / Fold change /veh IRGQ (11745062_a_at) / RFU FAM174B (11720279_a_at) / Fold change /veh FAM174B (11720279_a_at) / RFU TMPRSS4 (11748680_a_at) / Fold change /veh TMPRSS4 (11748680_a_at) / RFU FAM212B (11763350_a_at) / Fold change /veh FAM212B (11763350_a_at) / RFU PLEKHG5 (11743358_a_at) / Fold change /veh PLEKHG5 (11743358_a_at) / RFU ZSCAN30 (11745921_a_at) / Fold change /veh ZSCAN30 (11745921_a_at) / RFU CMKLR1 (11741424_a_at) / Fold change /veh CMKLR1 (11741424_a_at) / RFU LOC101060620 /// MAPK8IP1 (11723275_at) / Fold change /veh LOC101060620 /// MAPK8IP1 (11723275_at) / RFU SPTSSB (11747773_x_at) / Fold change /veh SPTSSB (11747773_x_at) / RFU PRSS12 (11739890_at) / Fold change /veh PRSS12 (11739890_at) / RFU BIN1 (11741810_x_at) / Fold change /veh BIN1 (11741810_x_at) / RFU WNT11 (11732464_a_at) / Fold change /veh WNT11 (11732464_a_at) / RFU C10orf10 (11716521_a_at) / Fold change /veh C10orf10 (11716521_a_at) / RFU C5orf56 (11738089_at) / Fold change /veh C5orf56 (11738089_at) / RFU CYB561 (11721691_x_at) / Fold change /veh CYB561 (11721691_x_at) / RFU ANKRD19P (11752326_a_at) / Fold change /veh ANKRD19P (11752326_a_at) / RFU OR2T12 /// OR2T33 /// OR2T8 (11738714_s_at) / Fold change /veh OR2T12 /// OR2T33 /// OR2T8 (11738714_s_at) / RFU VCAN (11748164_a_at) / Fold change /veh VCAN (11748164_a_at) / RFU JSRP1 (11732532_at) / Fold change /veh JSRP1 (11732532_at) / RFU KRTAP10-11 (11738290_x_at) / Fold change /veh KRTAP10-11 (11738290_x_at) / RFU MYO3A (11730013_a_at) / Fold change /veh MYO3A (11730013_a_at) / RFU EBF3 (11725865_a_at) / Fold change /veh EBF3 (11725865_a_at) / RFU CAMK2N1 (11719241_x_at) / Fold change /veh CAMK2N1 (11719241_x_at) / RFU C5orf56 (11738088_a_at) / Fold change /veh C5orf56 (11738088_a_at) / RFU OLFML3 (11715873_a_at) / Fold change /veh OLFML3 (11715873_a_at) / RFU LOC100653217 /// NTM (11731650_a_at) / Fold change /veh LOC100653217 /// NTM (11731650_a_at) / RFU MAPK11 (11762145_a_at) / Fold change /veh MAPK11 (11762145_a_at) / RFU FIZ1 (11724087_x_at) / Fold change /veh FIZ1 (11724087_x_at) / RFU OASL (11726364_x_at) / Fold change /veh OASL (11726364_x_at) / RFU SOX15 (11748057_x_at) / Fold change /veh SOX15 (11748057_x_at) / RFU CD79A (11719716_a_at) / Fold change /veh CD79A (11719716_a_at) / RFU HIST1H1D (11736915_at) / Fold change /veh HIST1H1D (11736915_at) / RFU CASKIN2 (11723855_a_at) / Fold change /veh CASKIN2 (11723855_a_at) / RFU LOC730098 (11760151_x_at) / Fold change /veh LOC730098 (11760151_x_at) / RFU OR4N2 (11742367_at) / Fold change /veh OR4N2 (11742367_at) / RFU PRRT2 (11749266_a_at) / Fold change /veh PRRT2 (11749266_a_at) / RFU SNX32 (11753110_a_at) / Fold change /veh SNX32 (11753110_a_at) / RFU CDHR5 (11726645_a_at) / Fold change /veh CDHR5 (11726645_a_at) / RFU RCAN1 (11760418_a_at) / Fold change /veh RCAN1 (11760418_a_at) / RFU FAM167A (11723789_a_at) / Fold change /veh FAM167A (11723789_a_at) / RFU FAM26E (11764081_at) / Fold change /veh FAM26E (11764081_at) / RFU ISYNA1 (11749810_s_at) / Fold change /veh ISYNA1 (11749810_s_at) / RFU ACY1 (11761880_at) / Fold change /veh ACY1 (11761880_at) / RFU 11764098_at / Fold change /veh 11764098_at / RFU SAMD14 (11745864_x_at) / Fold change /veh SAMD14 (11745864_x_at) / RFU NPB (11741838_a_at) / Fold change /veh NPB (11741838_a_at) / RFU TMPRSS6 (11731388_a_at) / Fold change /veh TMPRSS6 (11731388_a_at) / RFU KRTAP10-2 (11738614_at) / Fold change /veh KRTAP10-2 (11738614_at) / RFU ARHGAP8 /// PRR5-ARHGAP8 (11727945_x_at) / Fold change /veh ARHGAP8 /// PRR5-ARHGAP8 (11727945_x_at) / RFU KRTAP5-7 /// NADSYN1 (11734609_at) / Fold change /veh KRTAP5-7 /// NADSYN1 (11734609_at) / RFU RASL12 (11751679_a_at) / Fold change /veh RASL12 (11751679_a_at) / RFU CDKN2B (11736163_a_at) / Fold change /veh CDKN2B (11736163_a_at) / RFU PRF1 (11729649_at) / Fold change /veh PRF1 (11729649_at) / RFU, ZNF638 /// ZNF638-IT1 / Fold change vs veh, ZNF638 /// ZNF638-IT1 / RFU, PANK3 / Fold change vs veh, PANK3 / RFU, SH3YL1 / Fold change vs veh, SH3YL1 / RFU, ZEB2 / Fold change vs veh, ZEB2 / RFU, NRIP1 / Fold change vs veh, NRIP1 / RFU, PTTG1IP / Fold change vs veh, PTTG1IP / RFU, CAPN2 / Fold change vs veh, CAPN2 / RFU, MED14 / Fold change vs veh, MED14 / RFU, SNORA58 / Fold change vs veh, SNORA58 / RFU, C1orf63 / Fold change vs veh, C1orf63 / RFU, LRRFIP1 / Fold change vs veh, LRRFIP1 / RFU, NDUFAF7 / Fold change vs veh, NDUFAF7 / RFU, SLC12A2 / Fold change vs veh, SLC12A2 / RFU, IBTK / Fold change vs veh, IBTK / RFU, ESF1 / Fold change vs veh, ESF1 / Fold change vs veh, TMEM50B / RFU, TAOK1 / Fold change vs veh, TAOK1 / RFU, ACBD3 / Fold change vs veh, ACBD3 / RFU, TMA16 / Fold change vs veh, TMA16 / RFU, RWDD3 / Fold change vs veh, RWDD3 / RFU, BCAT1 / Fold change vs veh, BCAT1 / RFU, EDEM3 / Fold change vs veh, EDEM3 / RFU, TMEM33 / Fold change vs veh, TMEM33 / RFU, WDR75 / Fold change vs veh, WDR75 / RFU, AHCTF1 / Fold change vs veh, AHCTF1 / RFU, TFRC / Fold change vs veh, TFRC / RFU, ZDHHC17 / Fold change vs veh, ZDHHC17 / RFU, NOM1 / Fold change vs veh, NOM1 / RFU, ARL8B / Fold change vs veh, ARL8B / RFU, ZBTB11 / Fold change vs veh, ZBTB11 / RFU, TAMM41 / Fold change vs veh, TAMM41 / RFU, KIAA1704 /// LOC100996395 / Fold change vs veh, KIAA1704 /// LOC100996395 / RFU, ING1 / Fold change vs veh, ING1 / RFU, TRMT61B / Fold change vs veh, TRMT61B / RFU, FUBP3 / Fold change vs veh, FUBP3 / RFU, TP53 / Fold change vs veh, TP53 / RFU, TNKS2 / Fold change vs veh, TNKS2 / RFU, ZFP14 / Fold change vs veh, ZFP14 / RFU, ACTR2 / Fold change vs veh, ACTR2 / RFU, PPP3R1 / Fold change vs veh, PPP3R1 / RFU, PIK3R1 / Fold change vs veh, PIK3R1 / RFU, HNRNPA1 / Fold change vs veh, HNRNPA1 / RFU, RNF170 / Fold change vs veh, RNF170 / RFU, ZNF28 / Fold change vs veh, ZNF28 / RFU, RNGTT / Fold change vs veh, RNGTT / RFU, OGT / Fold change vs veh, OGT / RFU, BRD1 / Fold change vs veh, BRD1 / RFU, MARS / Fold change vs veh, MARS / RFU, ZNF655 / Fold change vs veh, ZNF655 / RFU, FAHD1 / Fold change vs veh, FAHD1 / RFU, BDP1 / Fold change vs veh, BDP1 / RFU, LRRCC1 / Fold change vs veh, LRRCC1 / RFU, ARID1A / Fold change vs veh, ARID1A / RFU, ZNF146 / Fold change vs veh, ZNF146 / RFU, ZNF330 / Fold change vs veh, ZNF330 / RFU, GPN3 / Fold change vs veh, GPN3 / RFU, C9orf123 / Fold change vs veh, C9orf123 / RFU, N4BP2L2 / Fold change vs veh, N4BP2L2 / RFU, ARFIP1 / Fold change vs veh, ARFIP1 / RFU, FAM179B / Fold change vs veh, FAM179B / RFU, BCL10 / Fold change vs veh, BCL10 / RFU, UHRF1BP1L / Fold change vs veh, UHRF1BP1L / RFU, BET1 / Fold change vs veh, BET1 / RFU, CNOT2 / Fold change vs veh, CNOT2 / RFU, ZNF268 / Fold change vs veh, ZNF268 / Fold change vs veh, ZNF507 / RFU, DGCR2 / Fold change vs veh, DGCR2 / RFU, WDSUB1 / Fold change vs veh, WDSUB1 / Fold change vs veh, HSP90B1 /// MIR3652 / RFU, ADSS / Fold change vs veh, ADSS / RFU, GK / Fold change vs veh, GK / RFU, ZNF148 / Fold change vs veh, ZNF148 / RFU, TAF9 / Fold change vs veh, TAF9 / RFU, SLC1A5 / Fold change vs veh, SLC1A5 / RFU, SLMO2 / Fold change vs veh, SLMO2 / RFU, ABCC4 / Fold change vs veh, ABCC4 / RFU, LOC101060439 /// RAP1B / Fold change vs veh, LOC101060439 /// RAP1B / RFU, RFX7 / Fold change vs veh, RFX7 / RFU, GTPBP10 / Fold change vs veh, GTPBP10 / RFU, CNEP1R1 / Fold change vs veh, CNEP1R1 / RFU, BIVM-ERCC5 /// ERCC5 / Fold change vs veh, BIVM-ERCC5 /// ERCC5 / RFU, ILF3 / Fold change vs veh, ILF3 / RFU 11762660_at / Fold change /veh 11762660_at / RFU VCAN (11757783_s_at) / Fold change /veh VCAN (11757783_s_at) / RFU DDX43 (11728927_at) / Fold change /veh DDX43 (11728927_at) / RFU KRT8 (11758188_x_at) / Fold change /veh KRT8 (11758188_x_at) / RFU NKD1 (11759106_at) / Fold change /veh NKD1 (11759106_at) / RFU SRD5A1 (11742802_a_at) / Fold change /veh SRD5A1 (11742802_a_at) / RFU TPSAB1 /// TPSB2 (11721975_s_at) / Fold change /veh TPSAB1 /// TPSB2 (11721975_s_at) / RFU GSTM3 (11746129_a_at) / Fold change /veh GSTM3 (11746129_a_at) / RFU IL23R (11737362_x_at) / Fold change /veh IL23R (11737362_x_at) / RFU TMEM51 (11727254_a_at) / Fold change /veh TMEM51 (11727254_a_at) / RFU PIWIL2 (11732686_x_at) / Fold change /veh PIWIL2 (11732686_x_at) / RFU ORM1 (11744905_x_at) / Fold change /veh ORM1 (11744905_x_at) / RFU CCDC152 (11743942_at) / Fold change /veh CCDC152 (11743942_at) / RFU ECM1 (11717891_a_at) / Fold change /veh ECM1 (11717891_a_at) / RFU IL23R (11748794_a_at) / Fold change /veh IL23R (11748794_a_at) / RFU TNFAIP8L3 (11732012_x_at) / Fold change /veh TNFAIP8L3 (11732012_x_at) / RFU MBOAT4 (11741988_at) / Fold change /veh MBOAT4 (11741988_at) / RFU 11764193_at / Fold change /veh 11764193_at / RFU TMEM53 (11763286_at) / Fold change /veh TMEM53 (11763286_at) / RFU MAGEB2 (11727129_at) / Fold change /veh MAGEB2 (11727129_at) / RFU TMEM200A (11744735_a_at) / Fold change /veh TMEM200A (11744735_a_at) / RFU CCDC152 (11751479_a_at) / Fold change /veh CCDC152 (11751479_a_at) / RFU FAM211A (11726209_a_at) / Fold change /veh FAM211A (11726209_a_at) / RFU RGS16 (11746705_a_at) / Fold change /veh RGS16 (11746705_a_at) / RFU VCAN (11755009_s_at) / Fold change /veh VCAN (11755009_s_at) / RFU RHOB (11743442_s_at) / Fold change /veh RHOB (11743442_s_at) / RFU RGS16 (11720943_a_at) / Fold change /veh RGS16 (11720943_a_at) / RFU RGS16 (11720944_at) / Fold change /veh RGS16 (11720944_at) / RFU, VPS4B / Fold change vs veh, VPS4B / RFU, CREB1 / Fold change vs veh, CREB1 / RFU, DNAJC13 / Fold change vs veh, DNAJC13 / RFU, GNAQ / Fold change vs veh, GNAQ / RFU, CDK5R1 / Fold change vs veh, CDK5R1 / RFU, ZRANB3 / Fold change vs veh, ZRANB3 / RFU, CUL4A / Fold change vs veh, CUL4A / RFU, CCNY / Fold change vs veh, CCNY / RFU, UFL1 / Fold change vs veh, UFL1 / RFU, COG3 / Fold change vs veh, COG3 / RFU, DIAPH2 / Fold change vs veh, DIAPH2 / RFU, SKA2 / Fold change vs veh, SKA2 / RFU, AFF3 / Fold change vs veh, AFF3 / RFU, LMF1 / Fold change vs veh, LMF1 / RFU, IPO11 / Fold change vs veh, IPO11 / RFU, DFFB / Fold change vs veh, DFFB / RFU, FOXP1 / Fold change vs veh, FOXP1 / RFU, CARD8 / Fold change vs veh, CARD8 / RFU, STRN3 / Fold change vs veh, STRN3 / RFU, ADK / Fold change vs veh, ADK / RFU, RASSF2 / Fold change vs veh, RASSF2 / RFU, WIPF1 / Fold change vs veh, WIPF1 / RFU, LARP1B / Fold change vs veh, LARP1B / RFU, RASA1 / Fold change vs veh, RASA1 / RFU, RB1 / Fold change vs veh, RB1 / RFU, PPFIA1 / Fold change vs veh, PPFIA1 / RFU, MAT2A / Fold change vs veh, MAT2A / RFU, CCT5 / Fold change vs veh, CCT5 / RFU, WDR92 / Fold change vs veh, WDR92 / RFU, CUX1 / Fold change vs veh, CUX1 / RFU, TTC7A / Fold change vs veh, TTC7A / RFU, TMEM135 / Fold change vs veh, TMEM135 / RFU, DEPTOR / Fold change vs veh, DEPTOR / RFU, CPM / Fold change vs veh, CPM / RFU, DNAJB6 / Fold change vs veh, DNAJB6 / RFU, CACNA2D3 / Fold change vs veh, CACNA2D3 / RFU, DTX4 / Fold change vs veh, DTX4 / RFU, TFCP2 / Fold change vs veh, TFCP2 / RFU, GMCL1 /// GMCL1P1 / Fold change vs veh, GMCL1 /// GMCL1P1 / RFU, AEBP2 / Fold change vs veh, AEBP2 / RFU, SNHG1 /// SNORD22 /// SNORD25 /// SNORD26 /// SNORD27 /// SNORD28 /// SNORD29 /// SNORD31 / Fold change vs veh, SNHG1 /// SNORD22 /// SNORD25 /// SNORD26 /// SNORD27 /// SNORD28 /// SNORD29 /// SNORD31 / Fold change (Aza/veh), C12orf56 (ProbeSet 11735607_a_at) / Fold change (ACY-1035/veh), C12orf56 (ProbeSet 11735607_a_at) / Fold change (Aza/veh), FGFR1OP (ProbeSet 11751329_s_at) / Fold change (ACY-1035/veh), FGFR1OP (ProbeSet 11751329_s_at) / Fold change (Aza/veh), VPS36 (ProbeSet 11739960_a_at) / Fold change (ACY-1035/veh), VPS36 (ProbeSet 11739960_a_at) / RFU SYPL1 (11715823_x_at) / Fold change /veh SYPL1 (11715823_x_at) / RFU IGFBP7 (11715501_s_at) / Fold change /veh IGFBP7 (11715501_s_at) / RFU REEP3 (11722064_at) / Fold change /veh REEP3 (11722064_at) / RFU IGLL1 (11728026_x_at) / Fold change /veh IGLL1 (11728026_x_at): dose or concentration left out as unconfirmed
Conditions: ProbeSet 11755436_x_at; LIST B

SMILES: Nc1ccc(-c2cccs2)cc1NC(=O)c1ccc2c(c1)cc(C1CC1)n2CCN1CCOCC1 [ACY-1035]
- RFU, ARID1A: 56.79 RFU
